Measurements reported in ChEMBL document CHEMBL3045706, “Synthesis of licochalcones and inhibition effects on radical-induced oxidation of DNA” (Med Chem Res, 2013).
The source made the active and inactive calls. The calls are words filed in the database; no cut-off is given here.

Assays:
Format in all cases: functional
[1] = Antioxidant activity assessed as hydroxyl radical-induced DNA oxidation at 0.2 mM after 30 min by TBARS assay (reference value: 100%)
[2] = Inhibition of Cu2+/GSH-induced DNA oxidation at 0.2 mM by TBARS assay
[3] = Inhibition of AAPH-induced DNA oxidation by TBARS assay

| Compound | Activity [1] | inhibition [2] | inhibition [3] |
| --- | --- | --- | --- |
| C=C(C)C(C)c1cc(/C=C/C(=O)c2ccc(O)cc2)cc(OC)c1O (centres undefined) | 91.3% | Active | Active |
| C=C(C)C(C)c1cc(/C=C/C(=O)c2ccc(O)cc2O)cc(OC)c1O (centres undefined) | 106% | Active | Active |
| C=C(C)C(C)c1cc(/C=C/C(=O)c2c(O)cc(O)cc2O)cc(OC)c1O (centres undefined) | 98.2% | Active | Active |
